Source: US4745112A, “Oxadiazolylimidazobenzodiazepine, compositions, and method III” (A/S Ferrosan, priority 1985, dated 1988)

What was measured:
[1] = test system: pentylenetetrazol induced tonic convulsions; experiment: Pentazol tonic conv. mice i.p. (Procedure 401); format: in vivo, mice (NMRI); settings: Mus musculus, ip, 0.5 h, i.p. 30 min before pentylenetetrazol 150 mg/kg s.c., tonic seizures, read-out: ED50 activity against pentazol induced convulsions, tonic
Procedure: III. Pentazol tonic conv. mice i.p. (Procedure 401)
(§1) Pentylenetetrazol induces clonic and tonic convulsions in mice at doses of 60-120 mg/kg s.c. The mechanism is unknown but seem to be due to some effects through the GABA receptor/benzodiazepine receptor/chloride ionophore complex. Antagonism of convulsions induced by maximal doses of pentylenetetrazol is considered predictive for drugs effective against petit mal epilepsia and anxiety.
150 mg/kg pentylenetetrazol (Pentazol, Sigma) dissolved in 0.9% NaCl is given by the subcutaneous route in volumes of 15 ml/kg to male or female NMRI mice weighing 20-25 g 30 min after an intraperitoneal injection of a test compound.
The ED50 value is calculated as the dose in μg/kg where seizures are inhibited in 50% of the animals using a computer program based on the method of Litchfield and Wilcoxon (1949).

[2] = test system: pentylenetetrazol induced clonic convulsions; experiment: Pentazol clonic conv. mice (i.p.) (Procedure 400); format: in vivo, mice (NMRI); settings: Mus musculus, ip, 0.5 h, i.p. 30 min before pentylenetetrazol 150 mg/kg s.c., clonic seizures, read-out: ED50 activity against pentazol induced convulsions, clonic
Procedure: II. Pentazol clonic conv. mice (i.p.) (Procedure 400)
as §1, with “seems” for “seem”
150 mg/kg pentylenetetrazol dissolved in 0.9% NaCl is given by the subcutaneous route in volume of 15 ml/kg to male or female NMRI mice weighing 20-25 g 30 min after an intraperitoneal injection of a test compound.
The ED50 value is calculated as the dose in μg/kg at which seizures are inhibited in 50% of the animals using a computer program based on the method of Litchfield and Wilcoxon (1949).

[3] = test system: benzodiazepine receptors; experiment: In vivo inhibition of 3H-flunitrazepam binding to mouse forebrain membranes, test substances i.p. (Procedure 130); settings: 3H-flunitrazepam i.v., dose inhibiting 50% of specific forebrain binding
Procedure: I. In vivo inhibition of ^3 H-flunitrazepam binding to mouse forebrain membranes by test substances administered intraperitoneally. (Procedure 130)
Twenty minutes after a dose of ^3 H-flunitrazepam (^3 H-FNM) (200 μCi/kg, i.v.) the amount of specific ^3 H-FNM binding to brain benzodiazepine receptors has reached its maximal value.
Suspensions of test substances (2 mg/ml) are prepared in 5% Duphasol-X* by sonification for 10 min using a Branson B15 microtip ultrasonifier (setting 7). Groups of three mice (female, NMR, 18-22 gram) are injected with the test substance at 100 mg/kg intraperitoneally. Fifteen minutes after test substance administration the mice are challenged with 4 μCi intravenously of ^3 H-FNM (70-90 Ci/mole) in 200 μl physiological saline. Twenty minutes after ^3 H-FNM administration mice are sacrificed by decapitation, the forebrains rapidly excised (within 30 sec) and homogenized in 12 ml of icecold 25 mM KH2 PO4, pH 7.1, using an Ultra-Turrax homogenizer fitted with an N 10 shaft. Two aliquots of 1 ml are immediately filtered through Whatman GF/C glassfibre filters and washed with 2×5 ml of the above mentioned buffer. The amounts of radioactivity on the filters are determined by conventional scintillation counting. One group of untreated mice serves as controls. One to three mice are injected with 25 mg/kg clonazepam i.p. 30 minutes before ^3 H-FNM to determine the amount of non-specific ^3 H-FNM binding, which should be between 8-15% of total binding.
When doses of 100 mg/kg inhibit more than 50% of specific ^3 H-flunitrazepam binding; test substances are administered in doses, which are factors of 3.16 times lower than 100 mg/kg.
The ED50 for a test substance is defined as that dose which inhibits 50% of specific ^3 H-FNM binding. Specific binding is the amount of binding in controls minus the amount binding in clonazepam-treated mice.
The ED50 value is determined from dose response curves. If only one dose of test substance is administered the ED50 value is calculated as follows, provided that the inhibition of specific binding is within the range of 25-75%: [formula] where Co is specific binding in controls and Cx is specific binding in mice treated with test substance.

Question: Which results are given for `CN1Cc2c(-c3noc(C4CC4)n3)ncn2-c2cccc(F)c2C1=O`?
Answer: ED50 [1]: 0.005 mg/kg; ED50 [2]: 0.02 mg/kg; ED50 binding in vivo [3]: 0.09 mg/kg

Question: `CN1Cc2c(-c3noc(C4CC4)n3)ncn2-c2cccc(C(F)(F)F)c2C1=O` was tested. Which ED50 [1] did it give?
Answer: 0.003 mg/kg

Question: What about the ED50 [2] of the same compound?
Answer: 0.008 mg/kg

Question: What about the “ED50 binding in vivo” value [3] of the same compound?
Answer: 0.01 mg/kg

Question: For `CC(C)c1noc(-c2ncn3c2CN(C)C(=O)c2c(Cl)cccc2-3)n1`, which ED50 [1] is on record?
Answer: 0.2 mg/kg

Question: What about the ED50 [2] of the same compound?
Answer: 0.6 mg/kg

Question: And the “ED50 binding in vivo” value [3]?
Answer: 0.2 mg/kg

Question: What does the source list for `CN1Cc2c(-c3nc(C4CC4)no3)ncn2-c2cccc(Cl)c2C1=O`?
Answer: ED50 [1]: 0.03 mg/kg; ED50 [2]: 0.09 mg/kg; ED50 binding in vivo [3]: 0.06 mg/kg

Question: With `O=C1c2c(Cl)cccc2-n2cnc(-c3noc(C4CC4)n3)c2C2CCCN12` (stereo not drawn) as the compound, how does the “ED50 binding in vivo” value [3] read?
Answer: 0.96 mg/kg

Question: With `O=C1c2c(Cl)cccc2-n2cnc(-c3nc(C4CC4)no3)c2C2CCCN12` (stereo not drawn) as the compound, how does the ED50 [1] read?
Answer: 0.08 mg/kg

Question: What about the “ED50 binding in vivo” value [3] of the same compound?
Answer: 0.23 mg/kg
